# Test results from PubChem BioAssay AID192 (DTP/NCI, 2004).
# Values joined by “and” are separate entries in the source; they are usually repeats but may differ in a detail not shown here. Equal entries are not always repeated. Inconclusive results and toxic doses are left out.
# System: BDF1 mice, B16 melanoma ip, median survival T/C
# Experiment: NCI In Vivo Anticancer Drug Screen. Data for tumor model B16 Melanoma (intraperitoneal) in B6D2F1 (BDF1) mice
# Settings: endpoint: median survival time, higher = longer survival
# How it was run: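 Read-out: survival or tumor size, given as treated/control ratio. Controls received vehicle only; animals bore transplantable tumors.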
# [1] = dose: 3.12 mg/kg/injection, schedule: Q01DX009 (ip), vehicle: Klucel (hydroxypropylcellulose) (HPC)
# [2] = dose: 6.25 mg/kg/injection, schedule: Q01DX009 (ip), vehicle: Klucel (hydroxypropylcellulose) (HPC)
# [3] = dose: 12.5 mg/kg/injection, schedule: Q01DX009 (ip), vehicle: Klucel (hydroxypropylcellulose) (HPC)
# [4] = dose: 100.0 mg/kg/injection, schedule: Q01DX009 (ip), vehicle: Klucel (hydroxypropylcellulose) (HPC)
# [5] = dose: 200.0 mg/kg/injection, schedule: Q01DX009 (ip), vehicle: Klucel (hydroxypropylcellulose) (HPC)
# [6] = dose: 400.0 mg/kg/injection, schedule: Q01DX009 (ip), vehicle: Klucel (hydroxypropylcellulose) (HPC)
# [7] = dose: 50.0 mg/kg/injection, schedule: Q01DX009 (ip), vehicle: saline with Tween-80
# [8] = dose: 100.0 mg/kg/injection, schedule: Q01DX009 (ip), vehicle: saline with Tween-80
# [9] = dose: 200.0 mg/kg/injection, schedule: Q01DX009 (ip), vehicle: saline with Tween-80
# [10] = dose: 25.0 mg/kg/injection, schedule: Q01DX009 (ip), vehicle: Klucel (hydroxypropylcellulose) (HPC)
# [11] = dose: 400.0 mg/kg/injection, schedule: Q01DX009 (ip), vehicle: saline with Tween-80
compound,measurement,setting,value
CC(C)(C)c1ccc(CN2CCN(C(c3ccccc3)c3ccc(Cl)cc3)CC2)cc1 (stereo unspecified),T/C,"dose: 0.39 mg/kg/injection, schedule: Q01DX009 (ip), vehicle: Klucel (hydroxypropylcellulose) (HPC)",86 % of control
same,T/C,[1],95 % of control
same,T/C,[2],90 % of control
same,T/C,[3],87 % of control
same,T/C,"dose: 175.0 nanograms/kg/injection, schedule: Q01DX009 (ip), vehicle: Klucel (hydroxypropylcellulose) (HPC)",105 % of control
same,T/C,"dose: 350.0 nanograms/kg/injection, schedule: Q01DX009 (ip), vehicle: Klucel (hydroxypropylcellulose) (HPC)",105 % of control
same,T/C,"dose: 700.0 nanograms/kg/injection, schedule: Q01DX009 (ip), vehicle: Klucel (hydroxypropylcellulose) (HPC)",101 % of control
same,T/C,"dose: 1400.0 nanograms/kg/injection, schedule: Q01DX009 (ip), vehicle: Klucel (hydroxypropylcellulose) (HPC)",105 % of control
same,T/C,"dose: 2800.0 nanograms/kg/injection, schedule: Q01DX009 (ip), vehicle: Klucel (hydroxypropylcellulose) (HPC)",107 % of control
CC1NC(=O)NC1=O (stereo unspecified),T/C,[4],90 % of control
same,T/C,[5],100 % of control
same,T/C,[6],102 % of control
Cc1ccccc1NC(=S)N(C)C,T/C,"dose: 6.25 mg/kg/injection, schedule: Q04DX003 (ip), vehicle: Klucel (hydroxypropylcellulose) (HPC)",96 % of control
same,T/C,"dose: 12.5 mg/kg/injection, schedule: Q04DX003 (ip), vehicle: Klucel (hydroxypropylcellulose) (HPC)",100 % of control
same,T/C,"dose: 25.0 mg/kg/injection, schedule: Q04DX003 (ip), vehicle: Klucel (hydroxypropylcellulose) (HPC)",88 % of control and 100 % of control
CS(=O)(=O)OCC(O)C(O)COS(C)(=O)=O (stereo unspecified),T/C,[7],100 % of control
same,T/C,[8],102 % of control
same,T/C,[9],103 % of control and 114 % of control
same,T/C,"dose: 800.0 mg/kg/injection, schedule: Q01DX009 (ip), vehicle: saline with Tween-80",153 % of control
CCCC1(C)COB(c2ccc(C)cc2)OC1,T/C,[10],93 % of control
same,T/C,"dose: 50.0 mg/kg/injection, schedule: Q01DX009 (ip), vehicle: Klucel (hydroxypropylcellulose) (HPC)",90 % of control
same,T/C,[4],97 % of control
same,T/C,[5],86 % of control
same,T/C,[6],90 % of control
CCCCCCCCCCCCCC(C)NCc1ccccc1 (stereo unspecified),T/C,"dose: 3.13 mg/kg/injection, schedule: Q01DX009 (ip), vehicle: saline with Tween-80",100 % of control
same,T/C,"dose: 6.25 mg/kg/injection, schedule: Q01DX009 (ip), vehicle: saline with Tween-80",100 % of control
same,T/C,"dose: 12.5 mg/kg/injection, schedule: Q01DX009 (ip), vehicle: saline with Tween-80",100 % of control
CC(=O)Nc1cc(NC(C)=O)cc(N(CCCl)CCCl)c1,T/C,"dose: 6.25 mg/kg/injection, schedule: Q01DX009 (ip), vehicle: water",119 % of control
same,T/C,"dose: 12.5 mg/kg/injection, schedule: Q01DX009 (ip), vehicle: water",115 % of control
c1ccc(CSSCc2ccccc2)cc1,T/C,[4],113 % of control
same,T/C,[5],114 % of control
same,T/C,[6],108 % of control
ClCC1C(CCl)C2(Cl)C(Cl)=C(Cl)C1(Cl)C2(Cl)Cl (stereo unspecified),T/C,[7],92 % of control
same,T/C,[8],93 % of control
same,T/C,[9],92 % of control
CCC/C=C/C=C\C(=O)O[C@@H]1[C@@H](C)[C@]2(O)[C@@H]3C=C(C)C(=O)[C@H]3CC(COC(C)=O)=C[C@H]2[C@@H]2C(C)(C)[C@]12OC(C)=O,T/C,"dose: 0.75 mg/kg/injection, schedule: Q01DX009 (ip), vehicle: saline + alcohol",107 % of control
same,T/C,"dose: 1.5 mg/kg/injection, schedule: Q01DX009 (ip), vehicle: saline + alcohol",105 % of control
same,T/C,"dose: 3.0 mg/kg/injection, schedule: Q01DX009 (ip), vehicle: saline + alcohol",113 % of control
same,T/C,"dose: 6.0 mg/kg/injection, schedule: Q01DX009 (ip), vehicle: saline + alcohol",113 % of control
C[CH2][Pb]([CH2]C)([CH2]C)[n]1cnc2ccccc21,T/C,"dose: 0.75 mg/kg/injection, schedule: Q01DX009 (ip), vehicle: Klucel (hydroxypropylcellulose) (HPC)",95 % of control
same,T/C,"dose: 1.5 mg/kg/injection, schedule: Q01DX009 (ip), vehicle: Klucel (hydroxypropylcellulose) (HPC)",96 % of control
CCCCc1c(OC)cc(O)c2c1C(=O)c1[nH]c(C(=O)O)c(O)c(=O)c1C2=O,T/C,"dose: 7.5 mg/kg/injection, schedule: Q01DX009 (ip), vehicle: Klucel (hydroxypropylcellulose) (HPC)",96 % of control
same,T/C,"dose: 15.0 mg/kg/injection, schedule: Q01DX009 (ip), vehicle: Klucel (hydroxypropylcellulose) (HPC)",96 % of control
C=CCN(CC=C)P(=O)(N1CC1)N1CC1C (stereo unspecified),T/C,"dose: 0.36 mg/kg/injection, schedule: Q01DX009 (ip), vehicle: saline",112 % of control
same,T/C,"dose: 0.5 mg/kg/injection, schedule: Q01DX009 (ip), vehicle: saline",110 % of control
same,T/C,"dose: 0.83 mg/kg/injection, schedule: Q01DX009 (ip), vehicle: saline",116 % of control
same,T/C,"dose: 1.25 mg/kg/injection, schedule: Q01DX009 (ip), vehicle: saline",114 % of control
same,T/C,"dose: 1.8 mg/kg/injection, schedule: Q01DX009 (ip), vehicle: saline",99 % of control
CCC(CC)CC1CN2CCc3cc(OC)c(OC)cc3C2CC1(O)CC (stereo unspecified),T/C,[1],102 % of control
same,T/C,[2],102 % of control
same,T/C,[3],102 % of control
same,T/C,[10],106 % of control
COc1ccc(-c2ccc(OC)c(OC)c2OC)c(N)c1,T/C,[8],107 % of control
same,T/C,[9],107 % of control
same,T/C,[11],94 % of control
O=C(O)c1ccccc1C(=O)Nc1ccc(Cl)cc1,T/C,[8],105 % of control
same,T/C,[9],94 % of control
CC(=O)NC1CC2c3ccccc3C1([N+](=O)[O-])c1ccccc12 (stereo unspecified),T/C,[4],100 % of control
same,T/C,[5],94 % of control
same,T/C,[6],91 % of control
CCCCCn1c(C)cc(/C=C\c2ccc3cc(C)ccc3[n+]2C)c1C,T/C,"dose: 0.62 mg/kg/injection, schedule: Q01DX009 (ip), vehicle: Klucel (hydroxypropylcellulose) (HPC)",93 % of control
same,T/C,"dose: 1.25 mg/kg/injection, schedule: Q01DX009 (ip), vehicle: Klucel (hydroxypropylcellulose) (HPC)",87 % of control
N=C(N)Sc1cc(O)ccc1O,T/C,"dose: 50.0 mg/kg/injection, schedule: Q01DX009 (ip), vehicle: saline",105 % of control
same,T/C,"dose: 100.0 mg/kg/injection, schedule: Q01DX009 (ip), vehicle: saline",94 % of control
same,T/C,"dose: 200.0 mg/kg/injection, schedule: Q01DX009 (ip), vehicle: saline",91 % of control
c1ccc2cc3c(ccc4ccccc43)cc2c1,T/C,"dose: 50.0 mg/kg/injection, schedule: Q01DX009 (ip), vehicle: distilled water + Tween-80",109 % of control
same,T/C,"dose: 100.0 mg/kg/injection, schedule: Q01DX009 (ip), vehicle: distilled water + Tween-80",103 % of control
same,T/C,"dose: 200.0 mg/kg/injection, schedule: Q01DX009 (ip), vehicle: distilled water + Tween-80",100 % of control
COC(CCC#N)c1ccc(Cl)cc1 (stereo unspecified),T/C,[8],101 % of control
same,T/C,[9],96 % of control
same,T/C,[11],98 % of control
